The record followed here is ChEMBL document CHEMBL4334501, “A drug repurposing screening reveals a novel epigenetic activity of hydroxychloroquine” (Eur J Med Chem, 2019).

Structures are written as SMILES. Calls of active or inactive are those of the source. The calls are words filed in the database; no cut-off is given here.

In assay [1] the target is Polycomb protein EED (Homo sapiens) (UniProt O75530). Description: Inhibition of EED subunit of PRC2 complex in human MM1S cells assessed as reduction in H3K27me3 expression after 24 hrs by Western blot analysis. It counts as cell-based.
Chain of Polycomb protein EED (Homo sapiens) (O75530 2-441 limits assumed): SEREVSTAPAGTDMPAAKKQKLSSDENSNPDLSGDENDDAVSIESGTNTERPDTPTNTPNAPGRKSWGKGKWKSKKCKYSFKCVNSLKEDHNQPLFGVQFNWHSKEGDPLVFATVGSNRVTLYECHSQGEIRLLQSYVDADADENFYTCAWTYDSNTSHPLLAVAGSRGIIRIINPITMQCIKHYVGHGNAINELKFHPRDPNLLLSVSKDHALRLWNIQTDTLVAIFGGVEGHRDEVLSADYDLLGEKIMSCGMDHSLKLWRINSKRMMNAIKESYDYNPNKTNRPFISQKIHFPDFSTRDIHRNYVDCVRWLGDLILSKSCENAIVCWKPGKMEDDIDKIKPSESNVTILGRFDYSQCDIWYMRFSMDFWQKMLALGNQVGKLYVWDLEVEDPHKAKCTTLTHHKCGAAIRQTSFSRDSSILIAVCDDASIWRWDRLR
Assay [2] shares this target. Kind of assay: Inhibition of HA-tagged human EED subunit of PRC2 complex expressed in human MM1S cells assessed as reduction in transfected EED cDNA vector-induced H3K27me3 overexpression at 10 uM after 24 hrs by Western blot analysis. The class given is cell-based. On the technique in general: In western blotting, separated proteins are transferred to a membrane and probed.

For the molecule `CCN(CCO)CCCC(C)Nc1ccnc2cc(Cl)ccc12` (configuration not stated), in assay [1], the inhibition entry is “Dose-dependent effect”. For the same molecule, the inhibition entry in assay [2] is “Active”.
